{
  "source": "patent US20250387424A1",
  "about": "“PHARMACEUTICAL COMPOSITION COMPRISING A3 ADENOSINE RECEPTOR AGONIST FOR TREATMENT OF PSORIASIS” (CAN-FITE BIOPHARMA LTD., priority 2022, published 2025)",
  "key": {"[1]": {"tested_on": "patients with moderate to severe plaque psoriasis", "assay": "COMFORT-1 phase 3 trial, safety (TEAEs, ECG)", "details": "for serious TEAE (number): not considered drug related; for tolerability: 32-week study period", "excerpt": "The COMFORT-1 study was a phase 3 multicenter (with sites in Bosnia, Bulgaria, Canada, Israel, Moldova, Poland, Romania, and Serbia) randomized, double-blind, controlled clinical trial in moderate-to-severe plaque psoriasis (ClinicalTrials.gov identifier: NCT03168256). […] Eligible patients were randomly assigned to these arms in a 3:3:3:2 ratio. Blinding was maintained using a double-dummy technique. The second segment (Weeks 16-32) included 3 treatment arms, as at Week 16, the patients in the placebo arm were re-randomized to piclidenoson 2 mg BID, piclidenoson 3 mg BID, or apremilast (dose-titrated over 6 days to 30 mg BID) in a 1:1:1 ratio and treated through Week 32. Those originally assigned to piclidenoson or apremilast remained on their initially assigned treatment through Week 32. Blinding was maintained through Week 32. Patients were evaluated every 2 weeks for efficacy and safety.\nSafety assessments included treatment emergent adverse events (TEAEs) and changes in vital signs, physical examination, clinical laboratory tests (liver, kidney, hematology, chemistry, and urinalysis), and electrocardiogramdings.\nOverall, 4 analysis populations were defined: The safety population included all patients who received ≥1 dose of piclidenoson; the intent-to-treat (ITT) population included all those in the safety population with at least one PASI score recorded post-BL and excluded patients who withdrew prior to Week 16 due to COVID-19-related study suspension; the modified ITT (mITT) population, which was used for the Week 16 efficacy analyses, included all ITT patients except one patient in the placebo arm who was excluded due to major protocol violations that were not captured in the original data; and lastly, the per protocol (PP) population, which was used for the Week 32 analyses, and included all ITT patients who had no major protocol violations on or before Week 16 and who completed Week 16 of the study. Exclusion from the PP population was finalized prior to any unblinded analyses. The analyses conducted for Week 32 were performed separately for patients who were initially randomized to piclidenoson or apremilast and for those who were initially randomized to the placebo group.\nDescriptive statistics were used to summarize patient characteristics and safety. […] If a patient had more than one TEAE with the same PT, the patient was counted once."}, "[2]": {"tested_on": "patients with moderate to severe plaque psoriasis", "assay": "COMFORT-1 phase 3 trial, efficacy (PASI, PGA2, PDI)", "format": "in vivo, human"}, "[3]": {"assay": "COMFORT-1 phase 3 trial, pharmacokinetics (Cmax, AUC)", "format": "in vivo, human", "details": "2 mg BID arm compared with 3 mg BID arm; Weeks 0, 8, 16", "procedure": "The trial had 2 segments (FIG. 1). […] Blinding was maintained through Week 32.\nThe primary endpoints included the proportion of patients achieving PASI 75 in the piclidenoson 2 mg and 3 mg BID arms vs. placebo at Week 16 (superiority) and safety. Secondary endpoints at Week 16 compared the piclidenoson arms to placebo and included the proportion of patients achieving PASI 50, the proportion of patients achieving a score of 0 or 1 in PGA2 (a PASI-based measure calculated using the intensity grading of components of the PASI score; specifically, it is the average of the PASI erythema, infiltration, and desquamation scores) [Gordon, K. B. et al. N Engl J Med 373, 136-144 (2015)], and the proportion of patients experiencing an improvement from BL in Psoriasis Disability Index (PDI). Additional secondary endpoints were evaluated at Week 32 and compared the piclidenoson arms to apremilast. These included the proportion of patients achieving PASI 75, PASI 50, PGA2 of 0 or 1, and the proportion of patients experiencing an improvement from BL in PDI. PK analysis, including calculating the peak concentration of the drug in the bloodstream after administration (Cmax), was conducted for Weeks 0, 8, and 16."}, "[4]": {"details": "apremilast 30 mg BID, Weeks 0-32, safety population N = 177"}, "[5]": {"details": "apremilast 30 mg BID, Week 32, PP population"}, "[6]": {"details": "piclidenoson 2 mg BID, Weeks 0-32, safety population N = 179"}, "[7]": {"details": "piclidenoson 3 mg BID, Weeks 0-32, safety population N = 173"}},
  "data": [
    {"smiles": "CCOc1cc([C@@H](CS(C)(=O)=O)N2C(=O)c3cccc(NC(C)=O)c3C2=O)ccc1OC", "note": "[Apremilast, apremilast, reference compound]", "values": [
      {"measurement": "Incidence of TEAE: GI disorders: Any", "setting": "[1]; [4]", "result": 7.3, "unit": "%"},
      {"measurement": "Incidence of TEAE: Nervous system: Any", "setting": "[1]; [4]", "result": 9.6, "unit": "%"},
      {"measurement": "serious TEAE (number)", "setting": "[1]; apremilast 30 mg BID, pneumonia", "result": 1},
      {"measurement": "patients who withdrew from the study due to TEAEs", "setting": "[1]; apremilast arm, Weeks 0-32", "result": 1},
      {"measurement": "patients achieving improvement from baseline in PDI (number/arm total)", "setting": "[2]; [5]", "result": "59/108"},
      {"measurement": "proportion of patients achieving PASI 50", "setting": "[2]; [5]", "result": 25.2, "unit": "%"},
      {"measurement": "proportion of patients achieving improvement from BL in PDI", "setting": "[2]; [5]", "result": 55.1, "unit": "%"},
      {"measurement": "proportion of patients with PGA2 of 0 or 1", "setting": "[2]; [5]", "result": 24.3, "unit": "%"},
      {"measurement": "proportion of patients achieving PASI 75", "setting": "[2]; apremilast 30 mg BID, Week 32, PP population, initially randomized to active treatment", "result": 26.2, "unit": "%"}
    ]},
    {"smiles": "CNC(=O)[C@H]1O[C@@H](n2cnc3c(NCc4cccc(I)c4)ncnc32)[C@H](O)[C@@H]1O", "note": "[Piclidenoson, methyl 1-[N^6-(3-iodobenzyl)-adenin-9-yl]-β-D-ribofuronamide]", "values": [
      {"measurement": "safety profile", "setting": "[1]; 3 mg dose of piclidenoson", "result": "excellent and better than apremilast"},
      {"measurement": "safety profile compared with placebo", "setting": "[1]; both piclidenoson dosages, placebo used only Week 0 through Week 16", "result": "generally comparable to that of placebo"},
      {"measurement": "safety profile compared with apremilast", "setting": "[1]; piclidenoson 2 mg BID and 3 mg BID", "result": "more favorable than that of apremilast"},
      {"measurement": "patients who withdrew from the study due to TEAEs", "setting": "[1]; piclidenoson 2 mg BID arm, Weeks 0-32", "result": 2},
      {"measurement": "tolerability", "setting": "[1]; piclidenoson 2 mg BID", "result": "well-tolerated"},
      {"measurement": "Incidence of TEAE: GI disorders: Any", "setting": "[1]; [6]", "result": 2.8, "unit": "%"},
      {"measurement": "Incidence of TEAE: Infections/infestations: Nasopharyngitis", "setting": "[1]; [6]", "result": 2.2, "unit": "%"},
      {"measurement": "Incidence of TEAE: Infections/infestations: Urinary tract infection", "setting": "[1]; [6]", "result": 3.4, "unit": "%"},
      {"measurement": "Incidence of TEAE: Nervous system: Any", "setting": "[1]; [6]", "result": 1.7, "unit": "%"},
      {"measurement": "serious TEAE (number)", "setting": "[1]; piclidenoson 2 mg BID, arterial embolism", "result": 1},
      {"measurement": "patients who withdrew from the study due to TEAEs", "setting": "[1]; piclidenoson 3 mg BID arm, Weeks 0-32", "result": 5},
      {"measurement": "tolerability", "setting": "[1]; piclidenoson 3 mg BID", "result": "well-tolerated"},
      {"measurement": "Incidence of TEAE: GI disorders: Any", "setting": "[1]; [7]", "result": 1.2, "unit": "%"},
      {"measurement": "Incidence of TEAE: Infections/infestations: Nasopharyngitis", "setting": "[1]; [7]", "result": 2.9, "unit": "%"},
      {"measurement": "Incidence of TEAE: Nervous system: Any", "setting": "[1]; [7]", "result": 1.7, "unit": "%"},
      {"measurement": "serious TEAE (number)", "setting": "[1]; piclidenoson 3 mg BID, osteomyelitis", "result": 1},
      {"measurement": "proportion of patients achieving PGA2 (0 or 1)", "setting": "[2]; piclidenoson 2 mg BID, Week 16, mITT population, p=0.027 vs placebo", "result": "11.8%±2.8%"},
      {"measurement": "proportion of patients achieving PASI 50", "setting": "[2]; piclidenoson 2 mg BID, Week 16, mITT population, p=0.060 vs placebo", "result": 26.0, "unit": "%"},
      {"measurement": "proportion of patients achieving PASI 75", "setting": "[2]; piclidenoson 2 mg BID, Week 16, mITT population, p=0.075 vs placebo", "result": "7.9%±2.4%"},
      {"measurement": "proportion of patients achieving PDI improvement from BL", "setting": "[2]; piclidenoson 2 mg BID, Week 16, mITT population, p=0.70 vs placebo", "result": 63.3, "unit": "%"},
      {"measurement": "proportion of patients achieving PASI 75", "setting": "[2]; piclidenoson 2 mg BID, Week 32, PP population, initially randomized to active treatment, noninferiority vs apremilast p=0.429", "result": 20.8, "unit": "%"},
      {"measurement": "proportion of patients with PGA2 of 0 or 1", "setting": "[2]; piclidenoson 2 mg BID, Week 32, PP population, noninferiority vs apremilast p=0.417", "result": 18.9, "unit": "%"},
      {"measurement": "proportion of patients achieving improvement from BL in PDI", "setting": "[2]; piclidenoson 2 mg BID, Week 32, PP population, noninferiority vs apremilast p=0.66", "result": 48.1, "unit": "%"},
      {"measurement": "proportion of patients achieving PASI 50", "setting": "[2]; piclidenoson 2 mg BID, Week 32, PP population, noninferiority vs apremilast p=0.75", "result": 17.0, "unit": "%"},
      {"measurement": "proportion of patients achieving PASI 75", "setting": "[2]; piclidenoson 3 mg BID, Week 16, mITT population, p=0.037 vs placebo", "result": "9.7%±1.8%"},
      {"measurement": "proportion of patients achieving PASI 75", "setting": "[2]; piclidenoson 3 mg BID, Week 16, mITT population, p=0.037 vs placebo, listed as piclidenoson", "result": 9.7, "unit": "%"},
      {"measurement": "proportion of patients achieving PGA2 (0 or 1)", "setting": "[2]; piclidenoson 3 mg BID, Week 16, mITT population, p=0.068 vs placebo", "result": "10.7%±3.0%"},
      {"measurement": "proportion of patients achieving PASI 50", "setting": "[2]; piclidenoson 3 mg BID, Week 16, mITT population, p=0.475 vs placebo", "result": 19.4, "unit": "%"},
      {"measurement": "proportion of patients achieving PDI improvement from BL", "setting": "[2]; piclidenoson 3 mg BID, Week 16, mITT population, p=1.00 vs placebo", "result": 58.3, "unit": "%"},
      {"measurement": "patients achieving improvement from baseline in PDI (number/arm total)", "setting": "[2]; piclidenoson 3 mg BID, Week 32, PP population", "result": "51/88"},
      {"measurement": "proportion of patients achieving PASI 75", "setting": "[2]; piclidenoson 3 mg BID, Week 32, PP population, initially randomized to active treatment, noninferiority vs apremilast p=0.881", "result": 17.0, "unit": "%"},
      {"measurement": "proportion of patients achieving improvement from BL in PDI", "setting": "[2]; piclidenoson 3 mg BID, Week 32, PP population, noninferiority vs apremilast p=0.072", "result": 58.0, "unit": "%"},
      {"measurement": "proportion of patients achieving PASI 50", "setting": "[2]; piclidenoson 3 mg BID, Week 32, PP population, noninferiority vs apremilast p=0.49", "result": 19.3, "unit": "%"},
      {"measurement": "proportion of patients with PGA2 of 0 or 1", "setting": "[2]; piclidenoson 3 mg BID, Week 32, PP population, noninferiority vs apremilast p=0.777", "result": 15.9, "unit": "%"},
      {"measurement": "exposure as measured by both Cmax and AUC", "setting": "[3]", "result": "similar"}
    ]}
  ]
}
